In patent US7612200B2, “Inhibitors of protein kinases” (Locus Pharmaceuticals, Inc., priority 2004, dated 2009):

Experiments:
Type in all cases: biochemical
[1] = molecular target: Tie2 (Homo sapiens, UniProt Q02763); test: Tie2 Kinase Activity
Description: (§1) Tie2 Kinase Activity: In a final reaction volume of 25 μl, Tie2 (h) (5-10 mU) is incubated with 8 mM MOPS pH 7.0, 0.2 mM EDTA, 0.5 mM MnCl2, 0.1 mg/ml poly(Glu, Tyr) 4:1, 10 mM MgAcetate and [γ-^33P-ATP] (specific activity approx. 500 cpm/pmol, concentration as required). The reaction is initiated by the addition of the MgATP mix. After incubation for 40 minutes at room temperature, the reaction is stopped by the addition of 5 μl of a 3% phosphoric acid solution. 10 μl of the reaction is then spotted onto a Filtermat A and washed three times for 5 minutes in 75 mM phosphoric acid and once in methanol prior to drying and scintillation counting.

[2] = molecular target: Lyn (Mus musculus, UniProt P25911); test: Protein kinase inhibition, Lyn (mouse); conditions: Rate (μM) 2, read-out: % Control
Chain of Lyn (P25911 whole entry): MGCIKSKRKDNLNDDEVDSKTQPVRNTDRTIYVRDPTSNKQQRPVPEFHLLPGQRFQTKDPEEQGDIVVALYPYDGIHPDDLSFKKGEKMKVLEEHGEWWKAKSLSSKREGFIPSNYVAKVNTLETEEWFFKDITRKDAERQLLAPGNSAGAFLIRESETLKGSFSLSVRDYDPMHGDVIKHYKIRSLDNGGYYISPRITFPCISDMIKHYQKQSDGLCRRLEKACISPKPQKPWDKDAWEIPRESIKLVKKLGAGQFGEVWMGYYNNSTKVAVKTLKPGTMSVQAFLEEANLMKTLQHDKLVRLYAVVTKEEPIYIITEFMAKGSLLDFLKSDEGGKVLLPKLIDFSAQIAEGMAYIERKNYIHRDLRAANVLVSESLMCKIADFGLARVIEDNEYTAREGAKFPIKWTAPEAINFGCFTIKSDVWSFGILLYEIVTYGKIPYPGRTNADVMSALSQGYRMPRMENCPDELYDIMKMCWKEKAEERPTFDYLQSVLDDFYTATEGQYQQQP

[3] = molecular target: ROCKI (Homo sapiens, UniProt Q13464); test: Protein kinase inhibition, ROCKI (human); conditions: Rate (μM) 2, read-out: % Control
[4] = molecular target: JNK3 (Homo sapiens, UniProt P53779); test: JNK3 Kinase Activity; conditions: compound at 2 μm
Chain of JNK3 (P53779 whole entry): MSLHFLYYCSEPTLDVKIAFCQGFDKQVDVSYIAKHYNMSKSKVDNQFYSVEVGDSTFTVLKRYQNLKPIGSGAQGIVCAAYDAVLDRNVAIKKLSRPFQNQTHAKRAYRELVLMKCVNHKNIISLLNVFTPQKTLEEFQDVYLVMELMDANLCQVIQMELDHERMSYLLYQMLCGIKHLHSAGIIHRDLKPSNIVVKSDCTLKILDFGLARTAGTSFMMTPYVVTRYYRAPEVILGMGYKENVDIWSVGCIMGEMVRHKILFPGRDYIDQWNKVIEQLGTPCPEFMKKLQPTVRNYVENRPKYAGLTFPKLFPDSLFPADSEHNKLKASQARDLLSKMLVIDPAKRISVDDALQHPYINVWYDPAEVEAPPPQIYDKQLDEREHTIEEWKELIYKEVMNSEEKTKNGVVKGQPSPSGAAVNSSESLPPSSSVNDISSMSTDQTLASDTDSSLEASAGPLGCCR
Description: as §1, with “JNK3” for “Tie2”, “50” for “8”, “Tris” for “MOPS”, “7.5, 0.1” for “7.0, 0.2”, “EGTA, 0.1% β-mercaptoethanol, 250 μM peptide,” for “EDTA, 0.5 mM MnCl2, 0.1 mg/ml poly(Glu, Tyr) 4:1,”, “P30 filtermat” for “Filtermat A”

[5] = molecular target: EphA7 (Homo sapiens, UniProt Q15375); test: Protein kinase inhibition, EphA7; conditions: Rate (μM) 2, read-out: % Control
[6] = molecular target: DDR2 (Homo sapiens, UniProt Q16832); test: Protein kinase inhibition, DDR2; conditions: Rate (μM) 2, read-out: % Control
[7] = molecular target: EphA2 (Homo sapiens, UniProt P29317); test: Protein kinase inhibition, EphA2; conditions: Rate (μM) 2, read-out: % Control
[8] = molecular target: EphA3 (Homo sapiens, UniProt P29320); test: Protein kinase inhibition, EphA3; conditions: Rate (μM) 2, read-out: % Control
[9] = molecular target: MINK (Homo sapiens, UniProt Q8N4C8); test: Protein kinase inhibition, MINK; conditions: Rate (μM) 2, read-out: % Control
[10] = molecular target: Ros (Homo sapiens, UniProt P08922); test: Protein kinase inhibition, Ros; conditions: Rate (μM) 2, read-out: % Control
Chain of Ros (P08922 28-2347): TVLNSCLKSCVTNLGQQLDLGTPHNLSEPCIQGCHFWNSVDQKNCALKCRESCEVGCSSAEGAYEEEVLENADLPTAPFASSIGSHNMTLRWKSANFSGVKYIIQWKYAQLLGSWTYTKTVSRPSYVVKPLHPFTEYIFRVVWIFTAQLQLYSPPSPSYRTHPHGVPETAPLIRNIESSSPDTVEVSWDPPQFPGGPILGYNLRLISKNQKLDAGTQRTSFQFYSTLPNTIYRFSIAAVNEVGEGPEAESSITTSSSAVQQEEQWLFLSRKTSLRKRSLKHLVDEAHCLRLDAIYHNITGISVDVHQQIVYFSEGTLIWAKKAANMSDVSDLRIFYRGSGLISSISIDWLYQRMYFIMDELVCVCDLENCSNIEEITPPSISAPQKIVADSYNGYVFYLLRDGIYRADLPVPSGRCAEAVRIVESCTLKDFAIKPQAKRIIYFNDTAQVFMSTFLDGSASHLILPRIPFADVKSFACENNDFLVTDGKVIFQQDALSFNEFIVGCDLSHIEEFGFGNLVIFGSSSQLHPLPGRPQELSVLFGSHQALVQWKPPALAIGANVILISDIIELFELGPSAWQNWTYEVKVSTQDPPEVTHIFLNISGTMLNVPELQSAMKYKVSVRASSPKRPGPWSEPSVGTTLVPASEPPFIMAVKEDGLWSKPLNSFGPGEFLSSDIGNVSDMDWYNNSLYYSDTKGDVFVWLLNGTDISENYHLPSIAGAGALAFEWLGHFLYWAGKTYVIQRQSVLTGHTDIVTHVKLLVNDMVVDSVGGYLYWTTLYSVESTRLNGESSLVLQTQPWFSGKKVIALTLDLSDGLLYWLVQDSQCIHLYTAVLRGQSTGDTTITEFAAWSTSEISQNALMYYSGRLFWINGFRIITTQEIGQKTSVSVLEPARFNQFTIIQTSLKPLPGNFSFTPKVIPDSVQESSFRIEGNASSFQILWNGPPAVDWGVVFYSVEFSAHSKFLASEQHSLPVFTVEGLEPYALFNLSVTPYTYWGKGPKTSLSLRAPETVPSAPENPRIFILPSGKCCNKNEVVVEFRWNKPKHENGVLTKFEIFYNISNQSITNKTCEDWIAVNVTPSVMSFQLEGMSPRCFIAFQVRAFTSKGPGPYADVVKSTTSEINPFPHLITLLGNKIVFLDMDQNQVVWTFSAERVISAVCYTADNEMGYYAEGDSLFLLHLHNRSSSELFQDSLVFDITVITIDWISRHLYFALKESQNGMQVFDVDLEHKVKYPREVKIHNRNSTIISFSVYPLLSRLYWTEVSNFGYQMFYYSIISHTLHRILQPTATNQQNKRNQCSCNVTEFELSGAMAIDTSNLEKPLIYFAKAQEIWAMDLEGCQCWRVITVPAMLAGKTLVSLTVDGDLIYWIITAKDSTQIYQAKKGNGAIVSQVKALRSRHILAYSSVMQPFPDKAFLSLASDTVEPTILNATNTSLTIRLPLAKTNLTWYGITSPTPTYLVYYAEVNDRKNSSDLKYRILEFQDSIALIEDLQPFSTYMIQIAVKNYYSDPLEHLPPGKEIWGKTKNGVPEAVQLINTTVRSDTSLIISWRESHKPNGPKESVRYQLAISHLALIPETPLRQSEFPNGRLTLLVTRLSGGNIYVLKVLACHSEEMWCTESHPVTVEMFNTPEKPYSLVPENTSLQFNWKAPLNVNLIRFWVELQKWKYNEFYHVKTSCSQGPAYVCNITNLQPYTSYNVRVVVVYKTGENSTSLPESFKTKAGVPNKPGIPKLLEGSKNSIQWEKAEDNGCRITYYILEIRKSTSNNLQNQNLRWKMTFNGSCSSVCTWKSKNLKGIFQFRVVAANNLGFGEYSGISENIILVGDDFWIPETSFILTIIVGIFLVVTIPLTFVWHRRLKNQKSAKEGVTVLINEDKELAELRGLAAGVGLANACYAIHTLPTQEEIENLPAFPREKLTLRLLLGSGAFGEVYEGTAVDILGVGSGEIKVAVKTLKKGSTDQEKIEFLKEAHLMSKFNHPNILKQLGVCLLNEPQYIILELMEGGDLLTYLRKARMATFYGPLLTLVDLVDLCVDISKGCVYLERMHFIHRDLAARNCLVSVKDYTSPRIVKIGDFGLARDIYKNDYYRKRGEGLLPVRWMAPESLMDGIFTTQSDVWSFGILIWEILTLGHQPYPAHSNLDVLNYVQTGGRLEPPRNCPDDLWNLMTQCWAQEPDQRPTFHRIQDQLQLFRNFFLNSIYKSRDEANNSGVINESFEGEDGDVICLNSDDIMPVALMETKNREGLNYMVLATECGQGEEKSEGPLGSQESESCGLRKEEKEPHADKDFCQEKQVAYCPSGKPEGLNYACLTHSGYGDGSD

[11] = test system: ROCKI; test: Protein kinase inhibition, ROCKI (rat); conditions: Rate (μM) 2
[12] = molecular target: T1, Flt3 (Homo sapiens, UniProt P36888); test: Flt3 Kinase Activity
T1 sequence (P36888 27-993): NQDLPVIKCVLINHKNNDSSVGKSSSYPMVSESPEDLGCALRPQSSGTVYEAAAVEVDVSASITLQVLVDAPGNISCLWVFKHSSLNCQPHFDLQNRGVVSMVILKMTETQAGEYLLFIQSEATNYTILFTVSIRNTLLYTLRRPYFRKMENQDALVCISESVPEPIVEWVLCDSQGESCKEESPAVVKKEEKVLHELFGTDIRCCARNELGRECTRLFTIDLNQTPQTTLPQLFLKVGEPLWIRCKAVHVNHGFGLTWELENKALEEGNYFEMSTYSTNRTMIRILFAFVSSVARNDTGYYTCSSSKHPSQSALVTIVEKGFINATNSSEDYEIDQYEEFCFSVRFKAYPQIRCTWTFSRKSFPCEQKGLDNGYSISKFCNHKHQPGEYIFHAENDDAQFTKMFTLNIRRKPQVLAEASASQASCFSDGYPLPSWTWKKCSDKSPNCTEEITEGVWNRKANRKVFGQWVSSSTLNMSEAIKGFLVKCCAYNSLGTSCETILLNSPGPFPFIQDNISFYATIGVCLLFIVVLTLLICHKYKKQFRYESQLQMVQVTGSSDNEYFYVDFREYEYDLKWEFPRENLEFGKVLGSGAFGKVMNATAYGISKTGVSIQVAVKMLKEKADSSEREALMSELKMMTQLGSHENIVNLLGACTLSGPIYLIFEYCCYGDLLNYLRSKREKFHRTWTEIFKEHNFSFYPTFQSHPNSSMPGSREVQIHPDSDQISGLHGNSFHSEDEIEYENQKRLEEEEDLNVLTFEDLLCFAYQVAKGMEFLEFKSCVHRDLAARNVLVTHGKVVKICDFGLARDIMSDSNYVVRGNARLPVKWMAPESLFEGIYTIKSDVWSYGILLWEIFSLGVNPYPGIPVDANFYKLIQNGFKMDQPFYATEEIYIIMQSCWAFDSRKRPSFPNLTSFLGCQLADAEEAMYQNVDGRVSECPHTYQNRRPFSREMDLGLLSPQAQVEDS
Description: Flt3 Kinase Activity: In a final reaction volume of 25 μl, Flt3 (h) (5-10 mU) is incubated with 8 mM MOPS pH 7.0, 0.2 mM EDTA, 50 μM EAIYAAPFAKKK, 10 mM MgAcetate and [γ-^33P-ATP] (specific activity approx. 500 cpm/pmol, concentration as required). The reaction is initiated by the addition of the MgATP mix. After incubation for 40 minutes at room temperature, the reaction is stopped by the addition of […] of a 3% phosphoric acid solution. […] of the reaction is then spotted onto a P30 filtermat and washed three times for 5 minutes in 75 mM phosphoric acid and once in methanol prior to drying and scintillation counting.

[13] = molecular target: MuSK (Homo sapiens, UniProt O15146); test: Protein kinase inhibition, MuSK; conditions: Rate (μM) 2, read-out: % Control

Chain of Tie2 (Q02763 23-1124): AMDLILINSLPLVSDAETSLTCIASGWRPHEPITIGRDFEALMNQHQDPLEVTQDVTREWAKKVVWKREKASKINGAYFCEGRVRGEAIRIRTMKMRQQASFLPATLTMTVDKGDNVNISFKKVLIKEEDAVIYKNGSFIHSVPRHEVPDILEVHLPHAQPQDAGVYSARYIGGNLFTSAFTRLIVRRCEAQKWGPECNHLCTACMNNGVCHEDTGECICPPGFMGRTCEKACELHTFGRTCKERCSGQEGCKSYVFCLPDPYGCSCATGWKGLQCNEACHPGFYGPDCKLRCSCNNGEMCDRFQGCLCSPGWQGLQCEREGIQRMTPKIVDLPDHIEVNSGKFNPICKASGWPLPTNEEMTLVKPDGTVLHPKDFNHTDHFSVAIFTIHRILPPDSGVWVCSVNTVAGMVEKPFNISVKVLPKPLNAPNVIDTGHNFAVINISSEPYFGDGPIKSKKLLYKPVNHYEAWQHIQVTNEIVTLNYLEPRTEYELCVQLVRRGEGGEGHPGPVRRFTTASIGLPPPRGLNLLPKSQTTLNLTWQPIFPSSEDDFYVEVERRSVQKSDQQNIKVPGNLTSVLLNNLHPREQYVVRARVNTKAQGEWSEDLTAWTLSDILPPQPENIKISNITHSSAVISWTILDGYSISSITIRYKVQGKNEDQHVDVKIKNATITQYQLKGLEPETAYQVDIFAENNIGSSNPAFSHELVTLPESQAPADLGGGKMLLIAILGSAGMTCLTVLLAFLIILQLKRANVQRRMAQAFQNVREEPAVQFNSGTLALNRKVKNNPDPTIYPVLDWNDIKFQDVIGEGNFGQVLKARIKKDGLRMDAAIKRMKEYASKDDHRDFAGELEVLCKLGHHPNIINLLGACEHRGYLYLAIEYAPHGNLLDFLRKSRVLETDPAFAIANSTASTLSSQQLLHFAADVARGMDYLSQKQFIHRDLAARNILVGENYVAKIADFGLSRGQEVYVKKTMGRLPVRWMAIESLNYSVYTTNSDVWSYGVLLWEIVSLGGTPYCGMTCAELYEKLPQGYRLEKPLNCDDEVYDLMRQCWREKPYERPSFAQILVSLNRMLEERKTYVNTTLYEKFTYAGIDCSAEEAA

remaining activity at 2 µM ([1]; 40 min, Tie2, Human, Rate (μM) 2, read-out: % Control): 76 to 100%
% Inhibition at 2 μm ([1]; Tie2, compound at 2 μm): 76-100%
remaining activity at 2 µM [2]: 76 to 100%
remaining activity at 2 µM [3]: 51 to 75%
% Inhibition at 2 μm [4]: 0-25%
remaining activity at 2 µM [5]: 76 to 100%
remaining activity at 2 µM [6]: 76 to 100%
remaining activity at 2 µM [7]: 76 to 100%
remaining activity at 2 µM [8]: 76 to 100%
remaining activity at 2 µM [9]: 51 to 75%
remaining activity at 2 µM [10]: 76 to 100%
% inhibition [11]: 51-75%
remaining activity at 2 µM ([12]; 40 min, Flt3, Human, Rate (μM) 2, read-out: % Control): 76 to 100%
% Inhibition at 2 μm ([12]; Flt3, compound at 2 μm): 76-100%
remaining activity at 2 µM [13]: 76 to 100%
SMILES: CC(C)(C)c1cc(C(=O)N2CCS(=O)(=O)CC2)c(NC(=O)Nc2ccc(Oc3ccncc3)cc2)s1 [Example 3, 1-[5-tert-Butyl-3-(1,1-dioxo-1λ^6-thiomorpholine-4-carbonyl)thiophen-2-yl]-3-[4-(pyridin-4-yloxy)phenyl]urea]
